Reference: EPA's ToxValDB 9.5 (doi:10.2903/j.efsa.2013.3352)

Tests used:
Typhlodromus pyri = experiment: LR50; higher = less toxic; conditions: chronic/long-term; duration: 14 days; mortality
Aphidius rhopalosiphi = experiment: LR50; higher = less toxic; conditions: acute; duration: 48 hours; mortality
Oryctolagus sp. = conditions: reproduction developmental
Daphnia magna = conditions: chronic/long-term; duration: 21 days; reproduction
Cyprinodon variegatus = conditions: chronic/long-term; duration: 28 days; time to hatch
Oncorhynchus mykiss = conditions: acute; duration: 96 hours; mortality
Bibionidae = conditions: chronic/long-term; duration: 28 days; other
Colinus virginianus = conditions: for LD50: acute, oral, mortality
Rattus norvegicus = conditions: acute; oral; mortality
Apis mellifera = conditions: acute, duration: 48 hours, mortality

With `Nc1cc(Cl)nc(C(=O)O)c1Cl` [4-Amino-3,6-dichloro-2-pyridinecarboxylic acid] the LR50 (Typhlodromus pyri) was over 60 g/ha, the LR50 (Aphidius rhopalosiphi) was over 60 g/ha and the NOAEL (Oryctolagus sp.; clinical signs) was 26 mg/kg-day. The NOAEL (Oryctolagus sp.; no effects) was 256 mg/kg-day, the NOEC (Daphnia magna) was 100 mg/L and the NOEC (Cyprinodon variegatus) was 0.1 mg/L. For the same compound, the LC50 (Oncorhynchus mykiss) was over 100 µg/mL, the NOEC (Bibionidae) was 130 mg/L and the LC50 (Tagia sp.; acute, duration: 14 days, mortality) was over 1000 mg/kg. The NOEC (Tagia sp.; chronic/long-term, duration: 8 weeks) was 3.2 mg/kg, the LD50 (Colinus virginianus; diet) was over 1460 mg/kg-day and the LD50 (Colinus virginianus) was over 2250 mg/kg-day. The NOEL (Colinus virginianus; reproduction developmental, reproduction) was 190 mg/kg-day, the LD50 (Rattus norvegicus) was over 5000 mg/kg-day and the LD50 (Apis mellifera; dermal) was over 100 µg/piece. The LD50 (Apis mellifera; oral, unspecified) was over 120 µg/piece.
